{
  "source": "paper PMC7560827",
  "about": "“Immunodominant proteins P1 and P40/P90 from human pathogen Mycoplasma pneumoniae” (Nature Communications, 2020)",
  "key": {"[1]": {"target": "T1, P40/P90N (Mycoplasmoides pneumoniae, UniProt Q50341)", "T1 construct": "gene orf6"}, "[2]": {"target": "T1, P40/P90N", "remark": "listed apart in the source"}},
  "data": [
    {"molecule": "CC(=O)N[C@H]1[C@H]([C@H](O)[C@H](O)CO)O[C@@](O[C@H]2[C@@H](O)[C@@H](CO)O[C@@H](O[C@H]3[C@H](O)[C@@H](O)C(O)O[C@@H]3CO)[C@@H]2O)(C(=O)O)C[C@@H]1O", "note": "(some centres unmarked) [3SL]", "values": [
      {"measurement": "X-ray crystal structure, 3.2 Å", "setting": "[1]", "result": 6, "unit": "TLZ for the 3SL complex"}
    ]},
    {"molecule": "CC(=O)N[C@H]1[C@H]([C@H](O)[C@H](O)CO)O[C@@](OC[C@H]2O[C@@H](O[C@H]3[C@H](O)[C@@H](O)C(O)O[C@@H]3CO)[C@H](O)[C@@H](O)[C@H]2O)(C(=O)O)C[C@@H]1O", "note": "(some centres unmarked) [6SL]", "values": [
      {"measurement": "X-ray crystal structure, 2.8 Å", "setting": "[2]", "result": 6, "unit": "TM0 for the 6SL complex"}
    ]}
  ]
}
